The target of one data set is T1, human MT2 receptor (Homo sapiens, UniProt P49286).
T1 sequence (P49286 1-362): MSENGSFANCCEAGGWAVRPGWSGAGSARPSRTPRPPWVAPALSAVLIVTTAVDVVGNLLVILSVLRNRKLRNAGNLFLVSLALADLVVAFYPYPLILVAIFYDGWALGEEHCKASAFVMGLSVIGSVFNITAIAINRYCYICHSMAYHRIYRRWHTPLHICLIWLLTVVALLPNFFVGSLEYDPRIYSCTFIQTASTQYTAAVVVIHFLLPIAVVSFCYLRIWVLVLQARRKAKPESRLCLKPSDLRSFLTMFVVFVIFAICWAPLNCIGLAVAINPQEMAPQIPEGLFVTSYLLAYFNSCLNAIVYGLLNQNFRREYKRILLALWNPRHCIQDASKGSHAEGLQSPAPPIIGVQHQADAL
Description: Activation of human MT2 receptor in receptor-expressing HEK293 cells (intracellular Ca2+, FLIPR). Format: cell-based. Conditions: for Emax: HEK293, maximum reaction by ramelteon taken as 100%, solvent only 0%; for EC50: HEK293 cells stably expressing human MT2 and Gq/i chimeric G-protein, intracellular Ca2+ by FLIPR. As to the method:
(§1) (1) Isolation of Human MT1 and MT2 Receptor and Construction of Expression Vector
(§2) A human MT1 receptor gene (GenBank Accession No.: NM_005958.3) and a human MT2 receptor gene (GenBank Accession No.: NM_005959.3) were each introduced into an expression vector pCDNA3.1/Zeo (Invitrogen, Inc.).
(§3) (2) Construction of Cells Stably Expressing Human MT1 and Human MT2 Receptor
(§4) The introduction was carried out according to the attached instructions, using a Lipofectoamine (registered trademark) 2000 Reagent (Invitrogen, Inc.). Zeocin and hygromycin were used as a resistant drug, and the cell was incubated for 15 days at 0.02 mg/mL and 0.05 mg/mL, respectively, thereby acquiring drug-resistant clones.
(§5) (3) Measurement of Intracellular Ca^2+ Concentration by FLIPR (Registered Trademark)
(§6) The respective stably expressing cells were dispensed into 96-well poly-D-lysine-coated plates (Falcon Co.) to 40,000 cells/well the day before the experiment, and incubated overnight in a DMEM (Invitrogen, Inc.) medium including 10% FBS at 37° C. and 5% CO2. The medium was replaced with a loading buffer (washing solution (Hank's balanced salt solution (HBSS), 20 mM HEPES-NaOH, 2.5 mM probenecid) including Fluo-4AM (Dojindo Co.) at 4 μM), and incubated for 1 hour at 37° C. and 5% CO2. Thereafter, the cells were washed with a plate washer (ELx405, BIO-TEK Instrument, Inc.) set with the washing solution, and set in an intracellular Ca^2+ concentration measuring systems (FLIPR (registered trademark), Molecular Device Co.). The test compound was dissolved in the washing solution in advance, diluted to a final concentration of −12 to −5 log M, set in a FLIPR (registered trademark) device together with the cells, and added to the cells in the device. At this time, a change in the intracellular Ca^2+ concentrations was measured.
(§7) Ex represents Example No. of the test compound.

The test system of data set [1] is sleep steps of electroencephalogram. Description: Measurement test of electroencephalogram in rat (sleep-awake cycle). Type of data set: in vivo. Conditions: for sleep action: rat electroencephalogram, 0.1, 1 and 10 mg/kg intraperitoneally; for change in the occupancy in the respective sleep steps of electroencephalogram: any of the doses 0.1, 1 and 10 mg/kg intraperitoneally. How it is done: Test Example 5 Measurement Test of Electroencephalogram in Rat
In order to accustom the animals to operations during the experiment, handling was carried out for about 1 minute for one example once a day from the next day of the animal acquisition to the day before the administration.
(2) Method for Preparing Electroencephalogram Electrode-Implanted Specimen
After the completion of a quarantine period, the animals showing no abnormal health condition were subjected to an electroencephalogram electrode chronic implantation surgery with reference to brain atlas of Pellegrino et al. Under anesthesia with pentobarbital sodium (45 mg/kg, i.p.), the rat was calibrated in a brain stereotaxic apparatus. In the frontal cortex, a monopolar silver ball electrode having a diameter of the tip of about 1 mm was placed on a hard film of the brain. Into the hippocampus, a laminated bipolar electrodes made of stainless steel was stuck. The reference electrode was screwed around the olfactory brain. Further, as for the electromyogram measurement, the lead wire was implanted in the both electrodes about 1 cm between the electrodes in the neck portion. The other end was exposed to the head portion subcutaneously. The electrodes and the lead wires were subjected to soldering with connector sockets and fixed to the skull with a dental resin or the like.
(3) Sorting and Grouping of Animals
It was confirmed that twenty five rat examples which had been subjected to an electroencephalogram electrode chronic implantation surgery were recovered from the invasion of the surgery, and stable electroencephalogram were obtained therefrom. The weights of the animals were measured after 6 days from the surgery using an electronic scale balance the day before the first administration, and twenty rats were chosen in the descending order and distributed to perform administration. The administration order for the test materials was determined by a stratified random allocation method using a random number function of a spreadsheet software Excel (Microsoft Corporation).
The rats were accommodated in a measurement cage under rat feeding and water supply on the morning of the day of administration, and accustomed to the measurement environment. After measuring the weight using an electronic scale balance, a lead wire and a connector socket were connected 30 minutes or more before the start of the electroencephalogram measurement, and the rat was accustomed in the measurement state under no anesthesia and no custody. The test compounds (solvent, 0.1 mg/kg, 1 mg/kg, and 10 mg/kg) were intraperitoneally administered to the rats and the electroencephalogram was measured continuously until 6 hours after the administration.
The frequency of brain wave were acquired by applying electrical signals of electroencephalogram and of electromyogram an electroencephalogram system and using an electroencephalogram frequency analysis program of a personal computer from the electroencephalograph system. In addition, the image signals of the electroencephalogram waveform were applied to an EEG video system and recorded on a DVD recorder. The behavior observation was carried out through a video camera at the same time as the electroencephalogram measurement and the images were also recorded with the DVD recorder.
(i) Spontaneous Electroencephalogram
The presence or absence of abnormality in the electroencephalogram waveform in up to 6 hours from immediately after the administration, to each animal, respectively, was observed.
The analysis of a sleep-awake cycle was visually carried out using a sleep stage display-supporting program based on the electroencephalogram waveforms acquired with an electroencephalogram frequency analysis program. […]

A further data set concerns 3T3. Description: In vitro 3T3 NRU phototoxicity test. Format: cell-based. As to the method: Test Example 6 Drug Pharmacokinetic Test, Safety Pharmacology Test, and Toxicity Test
Using some Example compounds of the present invention, a drug Pharmacokinetic test, a safety pharmacology test, and a toxicity test were carried out.
(iii) For the toxicity test, for example, an in vitro phototoxicity test was carried out. The evaluation of the in vitro phototoxicity test was carried out in accordance with Guidance for industry photosafety testing, Center for Drug Evaluation and Research Food and Drug Administration, 2003, which is a guideline of FDA (U.S. Food and Drug Administration), and Note for guidance on photosafety testing (CPMP/SWP/398/01, 2002) which is a guideline of EMA (European Medicines Agency), and the method described in OECD guideline for testing of chemicals 432: In vitro 3T3 NRU phototoxicity test, 2004, which is a test method described in the report of OECD.

In another data set the target is human MT1 receptor (Homo sapiens, UniProt P48039). Description: Activation of human MT1 receptor in receptor-expressing HEK293 cells (intracellular Ca2+, FLIPR). Format: cell-based. To be noted: for Emax: HEK293, maximum reaction by ramelteon taken as 100%, solvent only 0%, read-out: MT1 Emax (%); for EC50: HEK293 cells stably expressing human MT1 and Gq/i chimeric G-protein, intracellular Ca2+ by FLIPR. How it is done: as §1, §2, §3, §4, §5, §6, §7
Chain of human MT1 receptor (P48039 whole entry): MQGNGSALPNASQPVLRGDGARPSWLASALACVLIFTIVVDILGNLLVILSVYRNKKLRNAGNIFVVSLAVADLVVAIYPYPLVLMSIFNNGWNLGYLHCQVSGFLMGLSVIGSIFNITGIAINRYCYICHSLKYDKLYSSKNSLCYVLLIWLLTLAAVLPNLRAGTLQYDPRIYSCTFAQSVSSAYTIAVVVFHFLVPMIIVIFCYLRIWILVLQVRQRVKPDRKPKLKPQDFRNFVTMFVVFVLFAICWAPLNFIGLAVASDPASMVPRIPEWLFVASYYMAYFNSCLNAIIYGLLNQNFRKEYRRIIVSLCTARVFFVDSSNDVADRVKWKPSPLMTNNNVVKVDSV

`CNC(=O)c1[nH]c2ccc(OC)cc2c1CCNC(=O)C(F)F` [Ex 2, 3-{2-[(difluoroacetyl)amino]ethyl}-5-methoxy-N-methyl-1H-indole-2-carboxamide]: at human MT2 receptor, the Emax was found to be 109% and the EC50 was 28 nM. Also, the sleep action entry in data set [1] is recorded as “there was no sleep action”. Besides, the “change in the occupancy in the respective sleep steps of electroencephalogram” value in data set [1] (rat) is listed as “no change in the occupancy in the respective sleep steps of electroencephalogram could not be seen”. For the same molecule, in the data set with 3T3, the phototoxicity action entry is reported as “no phototoxicity action”. For the same molecule, on human MT1 receptor, the maximum response (Emax) was found to be 102% and the EC50 amounted to 11 nM.

As for `CCC(=O)NCC[C@@H]1CCc2ccc3c(c21)CCO3` [Ramelteon, reference compound], at human MT2 receptor, the Emax came out at 100% and the concentration giving a half-maximal response (EC50) worked out at 1.1 nM. The sleep action entry in data set [1] is recorded as “there is a sleep action”. Also, the “occupancy of the sleep step of electroencephalogram” value in data set [1] (rat, 0.1 mg/kg intraperitoneally, up to 6 hours) is given as “tendency that the occupancy of the sleep step of electroencephalogram from a dose of 0.1 mg/kg increases”. Also, in data set [1] (rat, 1 mg/kg intraperitoneally, up to 6 hours), the “occupancy of the respective sleep step” value is “significantly increases”. At human MT1 receptor, the Emax is 100% and a half-maximal response (EC50) required 0.28 nM.

Turning to `CNC(=O)c1[nH]c2cc(F)c(OC)cc2c1CCNC(C)=O` [Ex 17], the Emax at human MT2 receptor stood at 94%; at human MT1 receptor, 86%. Moreover, the EC50 at human MT2 receptor was 58 nM; on human MT1 receptor, 20 nM. In data set [1], the sleep action result was “there was no sleep action”. For the same molecule, the “change in the occupancy in the respective sleep steps of electroencephalogram” value in data set [1] (rat) is given as “no change in the occupancy in the respective sleep steps of electroencephalogram could not be seen”. Moreover, the phototoxicity action entry in the data set on 3T3 was “no phototoxicity action”.

Values taken from patent US9376449B2, “Indole carboxamide derivative” (Astellas Pharma Inc., priority 2012, dated 2016).
